Assays:
[1] = test system: PC-3; assay: PC-3 cell proliferation assay (WST-1); assay type: cell-based; conditions: Homo sapiens; inhibitory activity against PC-3 cell proliferation
Procedure: A panel of cancer cell lines is obtained from the DCTP Tumor Repository, National Cancer Institute (Frederick, Md.) or ATCC (Rockville, Md.). Cell cultures are maintained in Hyclone RPMI 1640 medium (Logan, Utah) supplemented with 10% fetal bovine serum and 20 mM HEPES buffer, final pH 7.2, at 37° C. with a 5% CO2 atmosphere. Cultures are maintained at sub-confluent densities. Human umbilical vein endothelial cells (HUVEC) are purchased from Clonetics, a division of Cambrex (Walkersville, Md.). Cultures are established from cryopreserved stocks using Clonetics EGM-2 medium supplemented with 20 mM HEPES, final pH 7.2, at 37° C. with a 5% CO2 atmosphere.
For proliferation assays, cells are seeded with the appropriate medium into 96 well plates at 1,000-2,500 cells per well, depending on the cell line, and are incubated overnight. The following day, test compound, DMSO solution (negative control), or Actinomycin D (positive control) is added to the appropriate wells as 10× concentrated stocks prepared in phosphate buffered saline. The cell plates are then incubated for an additional 2-5 days, depending on the cell line, to allow proliferation to occur. To measure cell density, 50 μL of WST-1 solution (Roche Applied Science, IN) diluted 1:5 in phosphate buffered saline is added to each well, and the cells incubated for an additional 1-5 hrs., again depending on the cell line. Optical density is determined for each well at […] using a Tecan GeniosPro plate reader (RTP, NC). The percentage of cell growth is determined by comparing the cell growth in the presence of test compounds to the cells treated with DMSO vehicle (control, 100% growth) and cells treated with Actinomycin D (10 μM, 0% growth). […]

[2] = test system: HSP-90 (heat shock protein 90); assay: Determination of affinity for HSP-90 (elution from purine affinity column); conditions: relative binding affinity to HSP-90; further: key: +++: very high; ++: high; +: moderate
Procedure: Affinity of test compounds for HSP-90 is determined as follows: Protein mixtures obtained from a variety of organ tissues (for example: spleen, liver and lung) are reversibly bound to a purine affinity column to capture purine-binding proteins, especially HSP-90. […] The elution profile of Formula I compounds is determined by 1-dimensional SDS polyacrylamide gel electrophoresis. Gels are stained with a fluorescent stain such as sypro ruby (a highly sensitive fluorescent protein stain that can readily detect less than 1 fmol of total protein, i.e., less than 0.04 ng for a 40 kDa protein) or silver nitrate. The gels are imaged using a standard flat bed gel imager and the amount of protein estimated by densitometry. The percent of HSP-90 protein eluted from the column at each concentration is determined and IC50 values are calculated from these estimates.

| SMILES | IC50 [1] [µM] | Affinity [2] |
| --- | --- | --- |
| Cc1cn(-c2ccc3c(N)ncnc3c2SCCNCC(C)(C)C)c2c1C(=O)CC(C)(C)C2 [Compound 81, 1-(4-amino-8-(2-(neopentylamino)ethylthio)quinazolin-7-yl)-3,6,6-trimethyl-6,7-dihydro-1H-indol-4(5H)-one] | < 0.5 |  |
| Cc1cn(-c2ccc3c(Cl)nccc3c2)c2c1C(=O)CC(C)(C)C2 [Compound 44, 1-(1-chloroisoquinolin-6-yl)-3,6,6-trimethyl-6,7-dihydro-1H-indol-4(5H)-one] |  | + |
| Cc1nn(-c2ccc3c(N)ncc(C#N)c3c2)c2c1C(=O)CC(C)(C)C2 [Compound 98, 1-amino-6-(3,6,6-trimethyl-4-oxo-4,5,6,7-tetrahydro-1H-indazol-1-yl)isoquinoline-4-carbonitrile] |  | ++ |
| Cc1cn(-c2ccc3c(N)ncnc3c2SCCNC(=O)OC(C)(C)C)c2c1C(=O)CC(C)(C)C2 [Compound 77, tert-butyl 2-(4-amino-7-(3,6,6-trimethyl-4-oxo-4,5,6,7-tetrahydro-1H-indol-1-yl)quinazolin-8-ylthio)ethylcarbamate] |  | ++ |
| CCCCSc1c(-n2cc(C)c3c2CC(C)CC3=O)ccc2c(N)ncnc12 (stereo not drawn) [Compound 72, 1-(4-amino-8-(butylthio)quinazolin-7-yl)-3,6-dimethyl-6,7-dihydro-1H-indol-4(5H)-one] |  | ++ |
| COCCNc1c(-n2cc(C)c3c2CC(C)(C)CC3=O)ccc2c(N)ncnc12 [Compound 56, 1-(4-amino-8-(2-methoxyethylamino)quinazolin-7-yl)-3,6,6-trimethyl-6,7-dihydro-1H-indol-4(5H)-one] |  | +++ |
| Cc1cc2c(n1-c1cnc3c(N)ncnc3c1)CC(C)(C)CC2=O [Compound 38, 1-(4-aminopyrido[3,2-d]pyrimidin-7-yl)-2,6,6-trimethyl-6,7-dihydro-1H-indol-4(5H)-one] | 5 to 50 |  |
| Cc1cn(-c2ccc3c(N)ncnc3c2OCCN(C)C)c2c1C(=O)CC(C)(C)C2 [Compound 52, 1-(4-amino-8-(2-(dimethylamino)ethoxy)quinazolin-7-yl)-3,6,6-trimethyl-6,7-dihydro-1H-indol-4(5H)-one] | 5 to 50 |  |
| CCOc1c(-n2cc(C)c3c2CC(C)(C)CC3=O)ccc2c(N)ncnc12 [Compound 62, 1-(4-amino-8-ethoxyquinazolin-7-yl)-3,6,6-trimethyl-6,7-dihydro-1H-indol-4(5H)-one] | 0.5 to 5 |  |
| Cc1nn(-c2ccc3c(N)ncnc3c2)c2c1C(=O)CCC2 [Compound 88, 1-(4-aminoquinazolin-7-yl)-3-methyl-6,7-dihydro-1H-indazol-4(5H)-one] |  | + |
| Cc1nn(-c2ccc3c(N)ncc(C(N)=O)c3c2)c2c1C(=O)CC(C)(C)C2 [Compound 99, 1-amino-6-(3,6,6-trimethyl-4-oxo-4,5,6,7-tetrahydro-1H-indazol-1-yl)isoquinoline-4-carboxamide] |  | ++ |
| CC1(C)CC(=O)c2c(C(F)F)nn(-c3ccc4c(N)ncc(C#N)c4c3)c2C1 [Compound 94, 1-amino-6-(3-(difluoromethyl)-6,6-dimethyl-4-oxo-4,5,6,7-tetrahydro-1H-indazol-1-yl)isoquinoline-4-carbonitrile] | 0.5 to 5 |  |
| COc1cc(COc2cc(-n3cc(C)c4c3CC(C)(C)CC4=O)cc3ncnc(N)c23)cc(OC)c1 [Compound 78, 1-(4-amino-5-(3,5-dimethoxybenzyloxy)quinazolin-7-yl)-3,6,6-trimethyl-6,7-dihydro-1H-indol-4(5H)-one] | 0.5 to 5 |  |
| Cc1cn(-c2cc(F)c3c(N)nc(N)nc3c2)c2c1C(=O)CC(C)(C)C2 [Compound 126, 1-(2,4-diamino-5-fluoroquinazolin-7-yl)-3,6,6-trimethyl-6,7-dihydro-1H-indol-4(5H)-one] | 0.5 to 5 |  |
| CC(=O)c1cnc(N)c2ccc(-n3cc(C)c4c3CC(C)(C)CC4=O)cc12 [Compound 107, 1-(4-acetyl-1-aminoisoquinolin-6-yl)-3,6,6-trimethyl-6,7-dihydro-1H-indol-4(5H)-one] | 0.5 to 5 |  |
| CCCCSc1cc(-n2cc(C)c3c2CC(C)(C)CC3=O)cc2ncnc(N)c12 [Compound 73, 1-(4-amino-5-(butylthio)quinazolin-7-yl)-3,6,6-trimethyl-6,7-dihydro-1H-indol-4(5H)-one] | 5 to 50 |  |
| C/C(=N\O)c1cnc(N)c2ccc(-n3cc(C)c4c3CC(C)(C)CC4=O)cc12 [Compound 102, (E)-1-(1-amino-4-(1-(hydroxyimino)ethyl)isoquinolin-6-yl)-3,6,6-trimethyl-6,7-dihydro-1H-indol-4(5H)-one] | 5 to 50 |  |

| SMILES | IC50 [1] [µM] | Affinity [2] |
| --- | --- | --- |
| CC1(C)CC(=O)c2c(CC3CC3)nn(-c3ccc4c(N)ncnc4c3)c2C1 [Compound 83, 1-(4-aminoquinazolin-7-yl)-3-(cyclopropylmethyl)-6,6-dimethyl-6,7-dihydro-1H-indazol-4(5H)-one] | 5 to 50 |  |
| Cc1cn(-c2ccc3c(N)ncnc3c2F)c2c1C(=O)CC(C)(C)C2 [Compound 43, 1-(4-amino-8-fluoroquinazolin-7-yl)-3,6,6-trimethyl-6,7-dihydro-1H-indol-4(5H)-one] | 0.5 to 5 |  |
| Cc1cn(-c2ccc3c(C)nc(N)nc3c2)c2c1C(=O)CC(C)(C)C2 [Compound 128, 1-(2-amino-4-methylquinazolin-7-yl)-3,6,6-trimethyl-6,7-dihydro-1H-indol-4(5H)-one] | < 0.5 |  |
| Cc1cn(-c2ccc3c(N)ncnc3c2OC2CCOCC2)c2c1C(=O)CC(C)(C)C2 [Compound 133, 1-(4-amino-8-(tetrahydro-2H-pyran-4-yloxy)quinazolin-7-yl)-3,6,6-trimethyl-6,7-dihydro-1H-indol-4(5H)-one] | 0.5 to 5 |  |
| Cc1cn(-c2cnc3c(N)ncnc3c2)c2c1C(=O)CC(C)(C)C2 [Compound 66, 1-(4-aminopyrido[3,2-d]pyrimidin-7-yl)-3,6,6-trimethyl-6,7-dihydro-1H-indol-4(5H)-one] | 0.5 to 5 |  |
| CCCCSc1c(-n2cc(C)c3c2CC(C)(C)CC3=O)ccc2c(N)ncnc12 [Compound 54, 1-(4-amino-8-(butylthio)quinazolin-7-yl)-3,6,6-trimethyl-6,7-dihydro-1H-indol-4(5H)-one] | 0.5 to 5 |  |
| Cc1cn(-c2ccc3c(N)ncnc3c2F)c2c1C(=O)CC(C)C2 (stereo not drawn) [Compound 65, 1-(4-amino-8-fluoroquinazolin-7-yl)-3,6-dimethyl-6,7-dihydro-1H-indol-4(5H)-one] | 0.5 to 5 |  |
| Cc1nn(-c2ccc3c(N)ncc(Br)c3c2)c2c1C(=O)CC(C)(C)C2 [Compound 47, 1-(1-amino-4-bromoisoquinolin-6-yl)-3,6,6-trimethyl-6,7-dihydro-1H-indazol-4(5H)-one] | 5 to 50 |  |
| Cc1cn(-c2ccc3c(O)ncnc3c2)c2c1C(=O)CC(C)(C)C2 [Compound 90, 1-(4-hydroxyquinazolin-7-yl)-3,6,6-trimethyl-6,7-dihydro-1H-indol-4(5H)-one] | < 0.5 |  |
| Cc1cn(-c2ccc3c(N)ncnc3c2)c2c1C(=O)CC(C)(C)C2 [Compound 39, 1-(4-aminoquinazolin-7-yl)-3,6,6-trimethyl-6,7-dihydro-1H-indol-4(5H)-one] | 0.5 to 5 |  |
| Cc1cn(-c2ccc3c(N)ncnc3c2SCCNC(C)(C)C)c2c1C(=O)CC(C)(C)C2 [Compound 110, 1-(4-amino-8-(2-(tert-butylamino)ethylthio)quinazolin-7-yl)-3,6,6-trimethyl-6,7-dihydro-1H-indol-4(5H)-one] | 0.5 to 5 |  |
| Cc1c2c(n(-c3ccc4c(N)ncnc4c3)c1C)CC(C)(C)CC2=O [Compound 92, 1-(4-aminoquinazolin-7-yl)-2,3,6,6-tetramethyl-6,7-dihydro-1H-indol-4(5H)-one] | < 0.5 |  |
| Cc1cn(-c2cnc3c(N)nc(N)nc3c2)c2c1C(=O)CC(C)(C)C2 [Compound 139, 1-(2,4-diaminopyrido[3,2-d]pyrimidin-7-yl)-3,6,6-trimethyl-6,7-dihydro-1H-indol-4(5H)-one] | < 0.5 |  |
| Cc1cn(-c2ccc3c(N)ncc(N)c3c2)c2c1C(=O)CC(C)(C)C2 [Compound 121, 1-(1,4-diaminoisoquinolin-6-yl)-3,6,6-trimethyl-6,7-dihydro-1H-indol-4(5H)-one] | 5 to 50 |  |
| CC1(C)CC(=O)c2c(C(F)(F)F)nn(-c3ccc4c(N)ncnc4c3)c2C1 [Compound 51, 1-(4-aminoquinazolin-7-yl)-6,6-dimethyl-3-(trifluoromethyl)-6,7-dihydro-1H-indazol-4(5H)-one] | 5 to 50 |  |
| Cc1cn(-c2ccc3c(N)ncc(C(N)=O)c3c2)c2c1C(=O)CC(C)(C)C2 [Compound 104, 1-amino-6-(3,6,6-trimethyl-4-oxo-4,5,6,7-tetrahydro-1H-indol-1-yl)isoquinoline-4-carboxamide] | 5 to 50 |  |
